Assay results reported in patent US11597746B2, “Cyclic dinucleotides as sting agonists” (JANSSEN BIOTECH, INC., priority 2018, dated 2023).
pEC50, pIC50: −log10 of the molar value.

Test system: human STING pathway in THP1-ISG cells
Assay: STING human cell reporter assay
Type: cell-based
Conditions: IRF-inducible SEAP reporter, 24 h

pEC50 | SMILES
5.74 | Nc1nc2c(ncn2[C@@H]2O[C@@H]3CO[P@@](=O)(S)O[C@H]4[C@@H](O)[C@H](n5cnc6c(N)ncnc65)O[C@@H]4CNS(=O)(=O)O[C@H]3[C@H]2F)c(=O)[nH]1 [Compound 14-R]
4.63 | Nc1nc2c(ncn2[C@@H]2O[C@@H]3CO[P@@](=O)(S)O[C@H]4[C@@H](F)[C@H](n5cnc6c(N)ncnc65)O[C@@H]4CNS(=O)(=O)O[C@H]3[C@@H]2F)c(=O)[nH]1 (single isomer, unassigned) [Compound 34-R]
4.32 | Nc1nc2c(ncn2[C@@H]2O[C@@H]3CO[P@](=O)(S)O[C@H]4[C@@H](F)[C@H](n5cnc6c(N)ncnc65)O[C@@H]4CNS(=O)(=O)O[C@H]3[C@@H]2F)c(=O)[nH]1 (single isomer, unassigned) [Compound 34-S]
6.74 | Nc1ncnc2c1ncn2[C@@H]1O[C@@H]2CNS(=O)(=O)O[C@H]3C[C@H](n4cnc5cc(Cl)c(Cl)cc54)O[C@@H]3COP(=O)(O)O[C@H]2[C@H]1F [Compound 32]
< 4.00 | Nc1nc2c(ncn2[C@@H]2O[C@@H]3COP(=O)(O)O[C@H]4[C@@H](F)[C@H](n5cnc6c(N)ncnc65)O[C@@H]4CNS(=O)(=O)O[C@H]3[C@H]2OCc2ccccc2)c(=O)[nH]1 [Compound 46]
7.52 | Nc1nc2c(ncn2[C@@H]2O[C@@H]3COP(=O)(O)O[C@H]4[C@@H](F)[C@H](n5cnc6c(N)ncnc65)O[C@@H]4CNS(=O)(=O)O[C@H]3[C@@H]2F)c(=O)[nH]1 [Compound 26]
6.14 | Nc1ncnc2c1ncn2[C@@H]1O[C@@H]2CNS(=O)(=O)O[C@H]3C[C@H](n4cnc5c(=O)[nH]ncc54)O[C@@H]3COP(=O)(O)O[C@H]2[C@H]1F [Compound 43]
5.37 | Nc1ncnc2c1ncn2[C@@H]1O[C@@H]2CNS(=O)(=O)O[C@H]3[C@@H](F)[C@H](n4cnc5c(=O)[nH]cnc54)O[C@@H]3CO[P@](=O)(S)O[C@H]2[C@H]1F [Compound 17-S]
6.03 | Nc1ncnc2c1ncn2[C@@H]1O[C@@H]2CO[P@@](=O)(S)O[C@H]3[C@@H](F)[C@H](n4cnc5c(=O)[nH]cnc54)O[C@@H]3CNS(=O)(=O)O[C@H]2[C@H]1F (single isomer, unassigned) [Compound 31-R]
7.92 | Nc1ncnc2c1ncn2[C@@H]1O[C@@H]2CNS(=O)(=O)O[C@H]3[C@@H](F)[C@H](n4cnc5c(N)ncnc54)O[C@@H]3CO[P@@](=O)(S)O[C@H]2[C@H]1F [Compound 2]
4.19 | CO[C@@H]1[C@@H]2OS(=O)(=O)NC[C@H]3O[C@@H](n4cnc5c(N)ncnc54)[C@H](F)[C@@H]3OP(=O)(O)OC[C@H]2O[C@H]1n1cnc2c(=O)[nH]c(N)nc21 [Compound 4]
7.03 | Nc1nc2c(ncn2[C@@H]2O[C@@H]3CO[P@@](=O)(S)O[C@H]4[C@@H](F)[C@H](n5cnc6c(N)ncnc65)O[C@@H]4CNS(=O)(=O)O[C@H]3[C@H]2F)c(=O)[nH]1 (single isomer, unassigned) [Compound 18-R]
5.74 | Nc1nc2c(ncn2[C@@H]2O[C@@H]3CNS(=O)(=O)O[C@H]4[C@H](F)[C@H](n5cnc6c(N)ncnc65)O[C@@H]4CO[P@@](=O)(S)O[C@H]3[C@H]2F)c(=O)[nH]1 (single isomer, unassigned) [Compound 16-R]
7.01 | Nc1ncnc2c1ncn2[C@@H]1O[C@@H]2CO[P@](=O)(S)O[C@H]3[C@@H](F)[C@H](n4cnc5c(=O)[nH]cnc54)O[C@@H]3COS(=O)(=O)O[C@H]2[C@H]1F (single isomer, unassigned) [Compound 22-S]
< 4.00 | Nc1nc2c(ncn2[C@@H]2O[C@@H]3CO[P@](=O)(S)O[C@H]4[C@@H](O)[C@H](n5cnc6c(N)ncnc65)O[C@@H]4CNS(=O)(=O)O[C@H]3[C@H]2F)c(=O)[nH]1 [Compound 14-S]
< 4.00 | COc1ccc(CO[C@@H]2[C@@H]3OS(=O)(=O)NC[C@H]4O[C@@H](n5cnc6c(N)ncnc65)[C@H](F)[C@@H]4OP(=O)(O)OC[C@H]3O[C@H]2n2cnc3c(N)ncnc32)cc1 [Compound 15-R]
5.20 | Nc1nc2c(ncn2[C@@H]2O[C@@H]3COP(=O)(O)O[C@H]4[C@@H](O)[C@H](n5cnc6c(N)ncnc65)O[C@@H]4CNS(=O)(=O)O[C@H]3[C@H]2F)c(=O)[nH]1 [Compound 9]

pEC50 | SMILES
6.14 | Nc1ncnc2c1ncn2[C@H]1C[C@@H]2NS(=O)(=O)OC[C@H]3O[C@@H](n4cnc5c(=O)[nH]cnc54)[C@H](F)[C@@H]3OP(=O)(O)OC[C@H]2O1 [Compound 28]
6.01 | Nc1ncnc2c1ncn2[C@@H]1O[C@@H]2CNS(=O)(=O)O[C@H]3[C@@H](F)[C@H](n4cnc5c(=O)[nH]cnc54)O[C@@H]3CO[P@@](=O)(S)O[C@H]2[C@H]1F [Compound 17-R]
8.34 | Nc1nc2c(ncn2[C@@H]2O[C@@H]3CNS(=O)(=O)O[C@H]4[C@H](F)[C@H](n5cnc6c(N)ncnc65)O[C@@H]4CO[P@](=O)(S)O[C@H]3[C@H]2F)c(=O)[nH]1 (single isomer, unassigned) [Compound 16-S]
< 4.00 | Nc1ncnc2c1ncn2[C@@H]1O[C@@H]2CNS(=O)(=O)O[C@H]3C[C@H](n4cc(F)c5c(N)ncnc54)O[C@@H]3COP(=O)(O)O[C@H]2[C@H]1F [Compound 29]
5.53 | Nc1ncnc2c1ncn2[C@@H]1O[C@@H]2COP(=O)(O)O[C@H]3C[C@H](n4cnc5c(N)ncnc54)O[C@@H]3CNS(=O)(=O)O[C@H]2[C@H]1F [Compound 6]
6.46 | Nc1ncnc2c1ncn2[C@@H]1O[C@@H]2CNS(=O)(=O)O[C@H]3[C@@H](F)[C@H](n4cnc5c(N)ncnc54)O[C@@H]3CO[P@@](=O)(S)O[C@H]2[C@H]1F [Compound 20-R]
6.01 | Nc1ncnc2c1ncn2[C@@H]1O[C@@H]2CO[P@](=O)(S)O[C@H]3[C@@H](F)[C@H](n4cnc5c(=O)[nH]cnc54)O[C@@H]3CNS(=O)(=O)O[C@H]2[C@H]1F (single isomer, unassigned) [Compound 31-S]
5.58 | Nc1nc(N)c2ncn([C@@H]3O[C@@H]4COP(=O)(O)O[C@H]5[C@@H](F)[C@H](n6cnc7c(N)ncnc76)O[C@@H]5CNS(=O)(=O)O[C@H]4[C@H]3F)c2n1 [Compound 44]
4.00 | Nc1ncnc2c1ncn2[C@@H]1O[C@@H]2CNS(=O)(=O)O[C@H]3C[C@H](n4nnc5c(=O)[nH]cnc54)O[C@@H]3COP(=O)(O)O[C@H]2[C@H]1F [Compound 42]
7.70 | Nc1nc2c(ncn2[C@@H]2O[C@@H]3CNS(=O)(=O)O[C@H]4[C@H](F)[C@H](n5cnc6c(N)ncnc65)O[C@@H]4COP(=O)(O)O[C@H]3[C@H]2F)c(=O)[nH]1 [Compound 13]
4.68 | Nc1nc2c(ncn2[C@@H]2O[C@@H]3CO[P@](=O)(S)O[C@H]4[C@@H](F)[C@H](n5cnc6c(N)ncnc65)O[C@@H]4CNS(=O)(=O)O[C@H]3[C@H]2F)c(=O)[nH]1 (single isomer, unassigned) [Compound 18-S]
6.80 | Nc1ncnc2c1ncn2[C@@H]1O[C@@H]2CNS(=O)(=O)O[C@H]3[C@@H](F)[C@H](n4cnc5c(N)ncnc54)O[C@@H]3COP(=O)(O)O[C@H]2[C@H]1F [Compound 1]
6.54 | Nc1ncnc2c1ncn2[C@@H]1O[C@@H]2CNS(=O)(=O)O[C@H]3[C@@H](F)[C@H](n4cnc5c(N)ncnc54)O[C@@H]3CNS(=O)(=O)O[C@H]2[C@H]1F [Compound 47]
6.14 | Nc1ncnc2c1ncn2[C@@H]1O[C@@H]2CNS(=O)(=O)O[C@H]3C[C@H](n4cnc5cncnc54)O[C@@H]3COP(=O)(O)O[C@H]2[C@H]1F [Compound 33]
7.54 | Nc1ncnc2c1ncn2[C@@H]1O[C@@H]2CO[P@@](=O)(S)O[C@H]3[C@@H](F)[C@H](n4cnc5c(=O)[nH]cnc54)O[C@@H]3COS(=O)(=O)O[C@H]2[C@H]1F (single isomer, unassigned) [Compound 22-R]
< 4.00 | Nc1ncnc2c1ncn2[C@@H]1O[C@@H]2CNS(=O)(=O)O[C@H]3C[C@H](n4ncc5c(=O)[nH]cnc54)O[C@@H]3COP(=O)(O)O[C@H]2[C@H]1F [Compound 39]

SMILES | pEC50
Nc1ncnc2c1ncn2[C@@H]1O[C@@H]2CNS(=O)(=O)O[C@H]3[C@H]4OO[C@]3(CO[P@](=O)(S)O[C@H]2[C@H]1F)O[C@H]4n1cnc2c(N)ncnc21 [Compound 37-S] | 6.19
Nc1ncnc2c1ncn2[C@@H]1O[C@@H]2CNS(=O)(=O)O[C@H]3[C@H]4OO[C@]3(CO[P@@](=O)(S)O[C@H]2[C@H]1F)O[C@H]4n1cnc2c(N)ncnc21 [Compound 37-R] | 6.06
Nc1ncnc2c1ncn2[C@@H]1O[C@@H]2CNS(=O)(=O)O[C@H]3[C@@H](F)[C@H](n4cnc5c(N)ncnc54)O[C@@H]3CO[P@](=O)(S)O[C@H]2[C@H]1F [Compound 20-S] | 4.21
Nc1ncnc2c1ncn2[C@@H]1O[C@@H]2COP(=O)(O)O[C@H]3[C@@H](F)[C@H](n4cnc5c(=O)[nH]cnc54)O[C@@H]3CNS(=O)(=O)O[C@H]2[C@H]1F [Compound 24] | 7.15
Nc1ncnc2c1ncn2[C@@H]1O[C@@H]2CNS(=O)(=O)O[C@H]3[C@@H](F)[C@H](n4cnc5c(N)ncnc54)O[C@@H]3CO[P@](=O)(S)O[C@H]2[C@H]1F (single isomer, unassigned) [Compound 3] | 6.27

Biological target: human STING (Homo sapiens (Human), UniProt Q86WV6, H232R)
Sequence (Q86WV6 139-379 H232R): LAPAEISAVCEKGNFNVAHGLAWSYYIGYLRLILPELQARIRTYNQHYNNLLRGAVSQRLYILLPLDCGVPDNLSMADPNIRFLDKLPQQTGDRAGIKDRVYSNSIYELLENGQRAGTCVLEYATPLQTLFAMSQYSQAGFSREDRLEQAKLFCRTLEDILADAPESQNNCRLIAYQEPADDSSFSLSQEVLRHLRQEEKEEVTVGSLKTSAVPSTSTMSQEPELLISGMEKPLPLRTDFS
Assay: STING SPA binding assay
Conditions: displacement of [3H]-2′3′-cGAMP from biotinylated recombinant STING (residues 139-379, H232R); read-out: hSTING SPA IC50

pIC50 | SMILES
< 4.00 | Nc1nc2c(ncn2[C@@H]2O[C@@H]3COP(=O)(O)O[C@H]4[C@@H](F)[C@H](n5cnc6c(N)ncnc65)O[C@@H]4CNS(=O)(=O)O[C@H]3[C@H]2OCc2ccccc2)c(=O)[nH]1 [Compound 46]
< 4.00 | COc1ccc(CO[C@@H]2[C@@H]3OS(=O)(=O)NC[C@H]4O[C@@H](n5cnc6c(N)ncnc65)[C@H](F)[C@@H]4OP(=O)(O)OC[C@H]3O[C@H]2n2cnc3c(N)ncnc32)cc1 [Compound 15-R]

Same assay, conditions: natural ligand

SMILES | values in STING SPA binding assay
Nc1nc2c(ncn2[C@@H]2O[C@@H]3COP(=O)(O)O[C@H]4[C@@H](O)[C@H](n5cnc6c(=O)[nH]c(N)nc65)O[C@@H]4COP(=O)(O)O[C@H]3[C@H]2O)c(=O)[nH]1 [cyclic-di-GMP, reference compound] | within the expected range
